In patent US10640468B2, “1-(4-(2-((1-(3,4-difluorophenyl)-1H-pyrazol-3-Yl)methoxy)ethyl)piperazin-1- Yl)ethanone salts” (ESTEVE PHARMACEUTICALS S.A., priority 2015, dated 2020):
Values joined by “and” are separate entries in the source; they are usually repeats but may differ in a detail not shown here. Equal entries are not always repeated. Structures can show the parent of a compound that is named as a salt. Where two headings read alike, the source gives them in different places.

Columns and labels:
[1] = Thermodynamic solubility at pH 7.4; assay type: physicochemical; settings: for solubility thermodynamic at 24 h: phosphate buffer, 25 °C, pH 7.4, aqueous buffer, thermodynamic from solid
Method: General protocol for thermodynamic solubility at pH 7.4 and pH 2 are described. • A) Thermodynamic Solubility at pH 7.4
Phosphate buffer at pH 7.4 (25 mM) was prepared as follows:
A solution 25 mM of Na2HPO4.12H2O (for 1 L of water, weight 8.96 g) was prepared
A solution 25 mM de KH2PO4 (for 1 L of water weight 3.4 g) was prepared.
Disodium phosphate solution (812 mL) and potassium phosphate (182 mL) solution were mixed and pH checked to be 7.4.
Equipment • Precision analytical balance Mettler Toledo AT20. • Analytical balance Mettler Toledo PJ300. • Liquid chromatograph Waters Alliance 2695. • Stirrer Thermomixer Control of Eppendorf a 25° C. y 1250 rpm • pHmeter with combined semi-micro electrode.
Around 4 mg of compound in an HPLC vial (by duplicate) was dissolved in 1 mL of buffer solution. After stirring in Thermomixer Comfort system for 24 hours at 25° C., in order to achieve thermodynamic equilibrium, solution was centrifuged at 3000 rpm for 15 minutes.
The resulting upper layer was collected with a glass pipette and transferred to the HPLC vials in order to inject them (10 μL) directly to the HPLC instrument.
Standards were made in methanol to ensure overall compound solubility. Preparation of standard calibrators is illustrated below:
Sol.A: 4 mg in 1 mL methanol (4000 μg/mL)
Sol.B: 0.5 mL Sol.A to 5 mL with methanol (400 μg/mL)
Sol.C: 1 mL Sol.B to 10 mL with methanol (40 μg/mL)
Sol.D: 5 mL […] to 50 mL with methanol (4 μg/mL)
Sol.E: 4 mL Sol.D to 10 mL with methanol (1.6 μg/mL)
Calibration curve was created through 10 μL injection of standards, beginning with the more diluted standard. Blanks were also injected, for checking the absence of contamination.
10 μl of test substance were injected, by duplicate, and the average peak area interpolated in the calibration curve (see Tables Examples below).
Chromatographic Conditions • Column: XBridge C18 (or similar) 2.5 μm 4.6×50 mm • Temperature: 35° C. • Mobile phase: ACN/ammonium bicarbonate 10 mM. • Gradient: 0-3.5 min: from 15% CAN to 95% CAN • 3.5-5 min: 95% ACN • 5-6 min: 95 a 15% ACN • 6-8 min: 15% ACN • Flow: 1.5 mL/min • Detection: around the maximum UV wavelength. • B) Thermodynamic Solubility at pH 2

[2] = Pharmacokinetics after single oral administration to male Wistar rat; assay type: in vivo
Method: The pharmacokinetics of Example 1 and 2 were tested using the following protocol:
Male Wistar rats weighing 250 to 300 g (±20) supplied by Harlan were used. Water and food was available ad libitum throughout the study.
Administration and Sample Collection
Two rats (R1 and R2) were used in the pharmacokinetic oral studies.
A single dose of tested compound was administered by oral gavage [10 mg/kg as free base (Example 0)] in 0.5% hydroxypropyl methylcellulose (1 mg/ml). From each rat, serial blood samples were collected at 15 and 30 min, 1, 2, 3, 5, 7 and 24 h.
Blood was collected from the saphenous veins into heparinized tubes. Plasma was obtained by blood centrifugation at 4° C. and 2280×g for 10 min and kept at −80° C. until analysis.
Tested compound concentration in plasma samples was determined by least-squares linear regression using a ten-point calibration curve. The calibration curve was prepared in blank plasma from a working solution of 1 mg/ml in DMSO.
Samples were thawed at room temperature on the day of analysis. After plasma protein precipitation of samples and calibration standards with acetonitrile (1:4.3; v/v), the mixture was vortexed and centrifuged (4° C. and 16090×g for 10 min).
Tested compound plasma concentrations were determined by high performance liquid chromatography-triple quadrupole mass spectrometry (HPLC-MS/MS) through the following method:
Column: Atlantis® T3 column (2.1×100 mm, 3 μm) (Waters).
Mobile phase: A: 0.0155% Formic water • B: 0.0155% Formic Acetonitrile
Autosampler wash: Solvent 1:Acetonitrile • Solvent 2: 5% Acetonitrile+95% Water
Standard pharmacokinetic parameters, such as area under the curve (AUC), peak plasma concentration (Cmax), time to peak concentration (tmax), oral bioavailability (F), total plasma clearance (Cl), volume of distribution at steady-state (Vss), mean residence time (MRT) and terminal half-life (t1/2), were determined by non-compartmental analysis of the plasma concentration-time curves (Phoenix v. 6.2.1.51, Pharsight, C A).

[3] = mean of 2 rats, 10 mg/kg oral, hydrochloride, 10 mg/kg

## CC(=O)N1CCN(CCOCc2ccn(-c3ccc(F)c(F)c3)n2)CC1 [Example 1, hydrochloride]
[1]; pH 7.4, single HPLC injections of duplicate vials, hydrochloride
  Conc.: 3928 µg/mL and 3817.1 µg/mL and 4301.5 µg/mL and 4345.3 µg/mL
[1]; pH 7.4, mean of 4 injections, read-out: Conc. Mean
  solubility thermodynamic at 24 h: 4100 µg/mL
[1]; pH=7.4, 24 hours at 25° C., completely dissolved, read-out: thermodynamic solubility
  solubility thermodynamic at 24 h: > 4000 µg/mL
[2]; animal 1, 10 mg/kg oral, mean AUC after i.v. administration used for calculation, hydrochloride
  F: 66%
[2]; animal 2, 10 mg/kg oral, mean AUC after i.v. administration used for calculation, hydrochloride
  F: 53%
[2]; male, Wistar, plasma, rat, total body water volume 0.6 l/kg, read-out: volume of distribution
  Vd: 1.2 L/kg
[2]; male, Wistar, rat, plasma, oral, 10 mg/kg, mean of 2 rats, 10 mg/kg oral, mean AUC after i.v. administration used for calculation, read-out: F (oral bioavailability)
  bioavailability: 60%
[2]; male, Wistar, rat, plasma, po, 10 mg/kg, animal 1, 10 mg/kg oral, read-out: AUC
  AUC: 2950 ng·h/mL
[2]; male, Wistar, rat, plasma, po, 10 mg/kg, animal 1, 10 mg/kg oral, read-out: Cmax
  Cmax: 1.31 µg/mL
[2]; male, Wistar, rat, plasma, po, 10 mg/kg, animal 1, 10 mg/kg oral, read-out: t1/2 (converted)
  half-life: 54 min
[2]; male, Wistar, rat, plasma, po, 10 mg/kg, animal 1, 10 mg/kg oral, read-out: tmax
  tmax: 15 min
[2]; male, Wistar, rat, plasma, po, 10 mg/kg, animal 2, 10 mg/kg oral, read-out: AUC
  AUC: 2340 ng·h/mL
[2]; male, Wistar, rat, plasma, po, 10 mg/kg, animal 2, 10 mg/kg oral, read-out: Cmax
  Cmax: 1.05 µg/mL
[2]; male, Wistar, rat, plasma, po, 10 mg/kg, animal 2, 10 mg/kg oral, read-out: t1/2 (converted)
  half-life: 54 min
[2]; male, Wistar, rat, plasma, po, 10 mg/kg, animal 2, 10 mg/kg oral, read-out: tmax
  tmax: 60 min
[2]; male, Wistar, rat, plasma, po, 10 mg/kg, mean of 2 rats, 10 mg/kg oral, read-out: AUC
  AUC: ~2600 ng·h/mL
[2]; male, Wistar, rat, plasma, po, 10 mg/kg, mean of 2 rats, 10 mg/kg oral, read-out: Cmax (peak plasma concentration)
  Cmax: ~1 µg/mL
[2]; male, Wistar, rat, plasma, po, 10 mg/kg, mean of 2 rats, 10 mg/kg oral, read-out: t1/2 (terminal half-life)
  half-life: < 60 min
[2]; male, Wistar, rat, plasma, po, 10 mg/kg, mean of 2 rats, 10 mg/kg oral, read-out: tmax
  tmax: 36 min
[2]; male, Wistar, rat, plasma, po, 10 mg/kg, rat R1, 0.5 h, 10 mg/kg oral
  concentration at 0.5 h: 1.3 µg/mL
[2]; male, Wistar, rat, plasma, po, 10 mg/kg, rat R1, 1 h, 10 mg/kg oral
  concentration at 1 h: 1.07 µg/mL
[2]; male, Wistar, rat, plasma, po, 10 mg/kg, rat R1, 5 h, 10 mg/kg oral
  concentration at 5 h: 0.0496 µg/mL
[2]; male, Wistar, rat, plasma, po, 10 mg/kg, rat R2, 0.5 h, 10 mg/kg oral
  concentration at 0.5 h: 0.742 µg/mL
[2]; male, Wistar, rat, plasma, po, 10 mg/kg, rat R2, 1 h, 10 mg/kg oral
  concentration at 1 h: 1.05 µg/mL
[2]; male, Wistar, rat, plasma, po, 10 mg/kg, rat R2, 5 h, 10 mg/kg oral
  concentration at 5 h: 0.0469 µg/mL
[2]; male, Wistar, rat, plasma, po, 10 mg/kg, rat R2, 7 h, 10 mg/kg oral
  concentration at 7 h: 0.0115 µg/mL
[2]; [3]
  AUC: 2645 ng·h/mL
  t1/2 (terminal half-life): 54 min
  tmax: 37.8 min
[2]; rat
  plasma clearance: 70 % liver blood flow
[2]; rat R1, 2 h, 10 mg/kg oral, hydrochloride, 10 mg/kg
  Plasma concentration: 0.7228 µg/mL
[2]; rat R1, 3 h, 10 mg/kg oral, hydrochloride, 10 mg/kg
  Plasma concentration: 0.3231 µg/mL
[2]; rat R1, 7 h, 10 mg/kg oral, hydrochloride, 10 mg/kg
  Plasma concentration: 0.0128 µg/mL
[2]; rat R1, 24 h, 10 mg/kg oral, LLOQ 2 ng/ml
  Plasma concentration: <lloq
[2]; rat R2, 2 h, 10 mg/kg oral, hydrochloride, 10 mg/kg
  Plasma concentration: 0.6739 µg/mL
[2]; rat R2, 3 h, 10 mg/kg oral, hydrochloride, 10 mg/kg
  Plasma concentration: 0.2331 µg/mL
[2]; rat R2, 24 h, 10 mg/kg oral, LLOQ 2 ng/ml
  Plasma concentration: <lloq
